# Experimental data taken from US7781591B2, “Substituted 3-cyanopyridines as protein kinase inhibitors” (Wyeth LLC, priority 2006, dated 2010).
# Target: T1, human PKCθ full length enzyme (Homo sapiens, UniProt Q04759)
# T1 construct: human PKCθ full length enzyme (Panvera Cat# P2996); purchased Panvera P2996
# Test: PKCθ IMAP assay (fluorescence polarization)
# Type: biochemical
# Conditions: not given
# T1 sequence (Q04759 whole entry): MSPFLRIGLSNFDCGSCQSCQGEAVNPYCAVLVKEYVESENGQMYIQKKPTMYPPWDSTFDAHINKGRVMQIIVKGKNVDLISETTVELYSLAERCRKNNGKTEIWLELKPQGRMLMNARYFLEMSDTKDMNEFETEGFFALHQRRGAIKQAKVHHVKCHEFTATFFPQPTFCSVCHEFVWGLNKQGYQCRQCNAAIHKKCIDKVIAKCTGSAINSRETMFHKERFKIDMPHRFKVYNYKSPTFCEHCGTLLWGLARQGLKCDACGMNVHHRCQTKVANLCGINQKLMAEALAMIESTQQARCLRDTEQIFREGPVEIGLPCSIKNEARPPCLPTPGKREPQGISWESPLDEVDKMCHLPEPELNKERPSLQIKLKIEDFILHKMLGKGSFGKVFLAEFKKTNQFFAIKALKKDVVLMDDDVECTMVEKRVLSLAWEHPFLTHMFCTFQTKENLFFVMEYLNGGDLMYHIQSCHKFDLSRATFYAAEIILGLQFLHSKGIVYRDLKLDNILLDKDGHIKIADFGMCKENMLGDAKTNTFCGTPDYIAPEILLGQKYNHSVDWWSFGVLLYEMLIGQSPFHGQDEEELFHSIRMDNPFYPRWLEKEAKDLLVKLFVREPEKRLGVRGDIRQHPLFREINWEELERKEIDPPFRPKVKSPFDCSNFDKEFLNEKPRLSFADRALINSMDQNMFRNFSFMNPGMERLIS
row,SMILES,IC50
1,"Cc1c(Nc2c(C#N)cncc2-c2cc3cc(CN4CC[N+](C)([O-])CC4)ccc3o2)ccc2[nH]ccc12 [Compound 554, 4-[(4-methyl-1H-indol-5-yl)amino]-5-{5-[(4-methyl-4-oxidopiperazin-1-yl)methyl]-1-benzofuran-2-yl}nicotinonitrile]",6 nM

# Same assay, conditions: human PKCθ full length enzyme, IMAP; average value; read-out: IC50 PKCθ IMAP
row,SMILES,IC50
1,"COc1ccc(-c2cncc(C#N)c2Nc2ccc3[nH]ccc3c2C)c(Cl)c1 [Compound 371, 5-(2-chloro-4-methoxyphenyl)-4-[(4-methyl-1H-indol-5-yl)amino]nicotinonitrile]",30 nM
2,"Cc1c(Nc2c(C#N)cncc2-c2ccc(OCCN3CCN(CCN(C)C)CC3)cc2)ccc2[nH]ccc12 [Compound 428, 5-[4-(2-{4-[2-(dimethylamino)ethyl]piperazin-1-yl}ethoxy)phenyl]-4-[(4-methyl-1H-indol-5-yl)amino]nicotinonitrile]",15 nM
3,"Cc1c(Nc2c(C#N)cncc2-c2cccc(Cl)c2Cl)ccc2[nH]ccc12 [Compound 380, 5-(2,3-dichlorophenyl)-4-[(4-methyl-1H-indol-5-yl)amino]nicotinonitrile]",50 nM
4,"Cc1c(Nc2c(C#N)cncc2-c2oc3ccccc3c2C)ccc2[nH]ccc12 [Compound 466, 5-(3-methyl-1-benzofuran-2-yl)-4-[(4-methyl-1H-indol-5-yl)amino]nicotinonitrile]",17 nM
5,"Cc1ccc(S(=O)(=O)n2cc(-c3cncc(C#N)c3Nc3cccc4[nH]ccc34)c3ccccc32)cc1 [Compound 320, 4-(1H-indol-4-ylamino)-5-{1-[(4-methylphenyl)sulfonyl]-1H-indol-3-yl}nicotinonitrile]",30 nM
6,"COc1ccc(-c2cncc(C#N)c2Nc2ccc3c(c2)CCC3)cc1OC [Compound 107, 4-(2,3-dihydro-1H-inden-5-ylamino)-5-(3,4-dimethoxyphenyl)nicotinonitrile]",9320 nM
7,"Cc1c(Nc2c(C#N)cncc2-c2ccc(OCCCN(C)C)cc2)ccc2[nH]ccc12 [Compound 475, 5-{4-[3-(dimethylamino)propoxy]phenyl}-4-[(4-methyl-1H-indol-5-yl)amino]nicotinonitrile]",9 nM
8,"Cc1c(Nc2c(C#N)cncc2-c2ccc(NC(=O)N3CCOCC3)cc2)ccc2[nH]ccc12 [Compound 569, N-(4-{5-cyano-4-[(4-methyl-1H-indol-5-yl)amino]pyridin-3-yl}phenyl)morpholine-4-carboxamide]",59 nM
9,"CC(=O)c1ccc(-c2cccc(-c3cncc(C#N)c3Nc3ccc4[nH]ccc4c3)c2)s1 [Compound 140, 5-[3-(5-acetyl-2-thienyl)phenyl]-4-(1H-indol-5-ylamino)nicotinonitrile]",110 nM
10,"N#Cc1cncc(-c2cc3cc(CO)ccc3s2)c1Nc1cccc2[nH]ccc12 [Compound 285, 5-[5-(hydroxymethyl)-1-benzothien-2-yl]-4-(1H-indol-4-ylamino)nicotinonitrile]",4 nM
11,"Cc1c(Nc2c(C#N)cncc2-c2cnc(N3CCCCC3)nc2)ccc2[nH]ccc12 [Compound 510, 4-[(4-methyl-1H-indol-5-yl)amino]-5-(2-piperidin-1-ylpyrimidin-5-yl)nicotinonitrile]",300 nM
12,"Cc1c(Nc2c(C#N)cncc2-c2ccc(OCCN(C)C)cc2Cl)ccc2[nH]ccc12 [Compound 363, 5-{2-chloro-4-[2-(dimethylamino)ethoxy]phenyl}-4-[(4-methyl-1H-indol-5-yl)amino]nicotinonitrile]",20 nM
13,"Cc1c(Nc2c(C#N)cncc2-c2cc3cc(CN4CCC(N5CCCC5)CC4)ccc3o2)ccc2[nH]ccc12 [Compound 393, 4-[(4-methyl-1H-indol-5-yl)amino]-5-{5-[(4-pyrrolidin-1-ylpiperidin-1-yl)methyl]-1-benzofuran-2-yl}nicotinonitrile]",1 nM
14,"N#Cc1cncc(-c2cccc(-c3ccc(C(=O)NCCN4CCCC4)cc3)c2)c1Nc1ccc2[nH]ccc2c1 [Compound 203, 3′-[5-cyano-4-(1H-indol-5-ylamino)pyridin-3-yl]-N-(2-pyrrolidin-1-ylethyl)biphenyl-4-carboxamide]",290 nM
15,"CN(C)c1ccc(-c2cncc(C#N)c2Nc2cccnc2)cc1 [Compound 291, 5-[4-(dimethylamino)phenyl]-4-(pyridin-3-ylamino)nicotinonitrile]",4860 nM
16,"COc1ccc(-c2cncc(C#N)c2NCC2CCNCC2)cc1OC [Compound 445, 5-(3,4-dimethoxyphenyl)-4-[(piperidin-4-ylmethyl)amino]nicotinonitrile]",20400 nM
17,"CCN(CC)CCOc1cc(-c2cncc(C#N)c2Nc2ccc3[nH]ccc3c2)ccc1OC [Compound 179, 5-{3-[2-(diethylamino)ethoxy]-4-methoxyphenyl}-4-(1H-indol-5-ylamino)nicotinonitrile]",410 nM
18,"Cc1c(Nc2c(C#N)cncc2-c2ccc(OCCN3CCC(CO)CC3)cc2)ccc2[nH]ccc12 [Compound 422, 5-(4-{2-[4-(hydroxymethyl)piperidin-1-yl]ethoxy}phenyl)-4-[(4-methyl-1H-indol-5-yl)amino]nicotinonitrile]",8 nM
19,"COc1ncc(-c2cncc(C#N)c2Nc2ccc3[nH]ccc3c2)cn1 [Compound 266, 4-(1H-indol-5-ylamino)-5-(2-methoxypyrimidin-5-yl)nicotinonitrile]",1450 nM

row,SMILES,IC50
1,"CS(=O)(=O)Nc1ccc(-c2cncc(C#N)c2Nc2cccc3[nH]ccc23)cc1 [Compound 317, N-{4-[5-cyano-4-(1H-indol-4-ylamino)pyridin-3-yl]phenyl}methanesulfonamide]",20 nM
2,"Cc1c(Nc2c(C#N)cncc2-c2ccc3[nH]ccc3c2)ccc2[nH]ccc12 [Compound 587, 5-(1H-indol-5-yl)-4-[(4-methyl-1H-indol-5-yl)amino]nicotinonitrile]",36 nM
3,"CCCCNC(=O)Nc1ccc(-c2cncc(C#N)c2Nc2ccc3[nH]ccc3c2C)cc1 [Compound 525, 1-butyl-3-(4-{5-cyano-4-[(4-methyl-1H-indol-5-yl)amino]pyridin-3-yl}phenyl)urea]",7 nM
4,"COc1ccc(-c2cncc(C#N)c2Nc2cc3cc[nH]c3cc2C)cc1OC [Compound 412, 5-(3,4-dimethoxyphenyl)-4-[(6-methyl-1H-indol-5-yl)amino]nicotinonitrile]",10 nM
5,"Cc1c(Nc2c(C#N)cncc2-c2cc3ccccc3o2)cc(Cl)c2[nH]ccc12 [Compound 531, 5-(1-benzofuran-2-yl)-4-[(7-chloro-4-methyl-1H-indol-5-yl)amino]nicotinonitrile]",20 nM
6,"Cc1c(Nc2c(C#N)cncc2-c2ccccn2)ccc2[nH]ccc12 [Compound 565, 4′-[(4-methyl-1H-indol-5-yl)amino]-2,3′-bipyridine-5′-carbonitrile]",22 nM
7,"CCCCNC(=O)c1ccc(-c2cccc(-c3cncc(C#N)c3Nc3ccc4[nH]ccc4c3)c2)cc1 [Compound 197, N-butyl-3′-[5-cyano-4-(1H-indol-5-ylamino)pyridin-3-yl]biphenyl-4-carboxamide]",190 nM
8,"N#Cc1cncc(-c2cccc(-c3ccc(C(=O)NCc4ccccn4)cc3)c2)c1Nc1ccc2[nH]ccc2c1 [Compound 212, 3′-[5-cyano-4-(1H-indol-5-ylamino)pyridin-3-yl]-N-(pyridin-2-ylmethyl)biphenyl-4-carboxamide]",590 nM
9,"Cc1c(Nc2c(C#N)cncc2-c2cncn2C)ccc2[nH]ccc12 [Compound 564, 5-(1-methyl-1H-imidazol-5-yl)-4-[(4-methyl-1H-indol-5-yl)amino]nicotinonitrile]",98 nM
10,"Cc1c(Nc2c(C#N)cncc2-c2cc3ccccc3n2C)ccc2[nH]ccc12 [Compound 586, 5-(1-methyl-1H-indol-2-yl)-4-[(4-methyl-1H-indol-5-yl)amino]nicotinonitrile]",8.7 nM
11,"COc1ccc(-c2cncc(C#N)c2Nc2cccc3[nH]ccc23)cc1OCCN1CCCCC1 [Compound 248, 4-(1H-indol-4-ylamino)-5-[4-methoxy-3-(2-piperidin-1-ylethoxy)phenyl]nicotinonitrile]",50 nM
12,"N#Cc1cncc(-c2cc3cc(CNCc4cccnc4)ccc3s2)c1Nc1cccc2[nH]ccc12 [Compound 289, 4-(1H-indol-4-ylamino)-5-(5-{[(pyridin-3-ylmethyl)amino]methyl}-1-benzothien-2-yl)nicotinonitrile]",4 nM
13,"Cc1c(Nc2c(C#N)cncc2-c2cc3cc(CO)ccc3s2)ccc2[nH]ccc12 [Compound 229, 5-[5-(hydroxymethyl)-1-benzothien-2-yl]-4-[(4-methyl-1H-indol-5-yl)amino]nicotinonitrile]",8 nM
14,"N#Cc1cncc(-c2cccc(-c3ccc(C(=O)NCCCCO)cc3)c2)c1Nc1ccc2[nH]ccc2c1 [Compound 209, 3′-[5-cyano-4-(1H-indol-5-ylamino)pyridin-3-yl]-N-(4-hydroxybutyl)biphenyl-4-carboxamide]",280 nM
15,"COc1cc(-c2cncc(C#N)c2Nc2ccc3[nH]ccc3c2C)ccc1OCCNCCCc1ccccc1 [Compound 344, 5-(3-methoxy-4-{2-[(3-phenylpropyl)amino]ethoxy}phenyl)-4-[(4-methyl-1H-indol-5-yl)amino]nicotinonitrile]",8 nM
16,"Cc1c(Nc2c(C#N)cncc2-c2cc3ccccc3o2)ccc2[nH]ccc12 [Compound 222, 5-(1-benzofuran-2-yl)-4-[(4-methyl-1H-indol-5-yl)amino]nicotinonitrile]",1 nM
17,"N#Cc1cncc(-c2cccc(-c3ccc(C(=O)NCc4cccnc4)cc3)c2)c1Nc1ccc2[nH]ccc2c1 [Compound 213, 3′-[5-cyano-4-(1H-indol-5-ylamino)pyridin-3-yl]-N-(pyridin-3-ylmethyl)biphenyl-4-carboxamide]",270 nM
18,"N#Cc1cncc(-c2cc3cc(CN4CCCC4)ccc3s2)c1Nc1cccc2[nH]ccc12 [Compound 280, 4-(1H-indol-4-ylamino)-5-[5-(pyrrolidin-1-ylmethyl)-1-benzothien-2-yl]nicotinonitrile]",4 nM
19,"Cc1c(Nc2c(C#N)cncc2-c2ccc(OCCN3CCN(C)CC3)cc2Cl)ccc2[nH]ccc12 [Compound 470, 5-{2-chloro-4-[2-(4-methylpiperazin-1-yl)ethoxy]phenyl}-4-[(4-methyl-1H-indol-5-yl)amino]nicotinonitrile]",107 nM
